Source: patent publication EP3748362A1, “IN VITRO METHOD FOR DETECTING RENAL DISEASE” (Fundacion Instituto De Investigacion Sanitaria Fundacion …, priority 2019, dated 2020)
Entries after “also recorded” stand apart in the source; their conditions may differ.

Experiments:
[1] = tested on: NF-κB2; experiment: Non-canonical NF-κB2 activation and NF-κB2 targets in kidneys of TWEAK-injected mice; format: in vivo
Procedure: (§1) All animal procedures were performed according to the guidelines of animal research in the European Community and with prior approval by the Ethics Committee of the Health Research of the IIS-Fundacion Jiménez Díaz. For in vivo studies, mice received a daily intraperitoneal injection of the VDRA Paricalcitol starting 48 hours prior to induction of kidney damage.
(§2) At the time of sacrifice, animals were anesthetized with 5 mg/kg xylazine (Rompun, Bayer AG) and 35 mg/kg ketamine (Ketolar, Pfizer) and the kidneys perfused in situ with cold saline before removal. Then, kidney portions were fixed in formalin buffer for immunohistochemistry studies or immediately frozen in liquid nitrogen for gene and protein studies.
TWEAK administration: C57BL/6 female mice (9-12 weeks, weight 20 g, 7-8 animals per group), received a single intraperitoneal injection of 0.5 µg TWEAK dissolved in saline and were sacrificed 24 hours later, as previously described (Sanz et al. 2008). Controls were injected with the saline vehicle (n=8-10 mice per group). TWEAK endotoxin level were <0.1 ng/mg, confirmed by MALDI-TOF. Some animals received paricalcitol 750 ng/kg/day, or the NF-κB2 inhibitor SN52, 0.7 mg/mouse/day, starting 48 hours before TWEAK administration. Animals were sacrificed 24 hours later. The dose of paricalcitol was chosen based on prior experience in mild inflammatory kidney conditions.
Paraffin-embedded kidney sections (3 µm) were stained using conventional methods. Antigen retrieval was performed by PTlink link system (Dako Diagnostics) with sodium citrate buffer (10 mmol/L) adjusted to pH 6-9 depending on the immunohistochemical marker, followed by immunohistochemical staining in a Dako Autostainer. Steps: 1) endogenous peroxidase blockade; 2) primary antibodies incubation; anti-CD3 (1:300; Dako) or anti-F4/80 (1:5000; Serotec); NF-κB p-p65 (1:200; Cell Signalling); NF-κB2 p52 (1:50; Cell Signaling); RelB (1:50; Santa Cruz Biotechnology); CCL21 (1:90; Santa Cruz Biotechnology); 3) washing; 4) DUOFLEX Doublestain EnVision™ treatment, using 3,3'-diaminobenzidine as chromogen. For F4/80 staining a rabbit anti-rat linker was used before EnVision. Sections were counterstained with Carazzi's hematoxylin. […] For each sample (processed by duplicate in a blinded manner), the average value was obtained from the analysis of 4 fields (20X objective) as density/mm2 or percentage stained area vs total analyzed area. Data are expressed as fold increase over control mice, as mean ± SEM of 8-10 animals per group. […]
For western blot, cell (25 µg/lane) and kidney (100-150 µg/lane) protein extracts were separated on 6%-12% polyacrylamide-SDS gels under reducing conditions. […] Autoradiographs were scanned using the Gel Doc™ EZ imager and analyzed with the Image Lab 3.0 software (BioRad). […]

[2] = tested on: NF-κB2; experiment: Non-canonical NF-κB2 activation in TWEAK-stimulated PBMCs from healthy donors; format: cell-based, Human; conditions: 12 µM paricalcitol 24 hours, TWEAK 100 ng/ml, p52 levels
[3] = tested on: NF-κB1; experiment: Canonical NF-κB1 activation in kidneys of TWEAK-injected mice; format: in vivo; conditions: kidneys from TWEAK-injected mice; paricalcitol 750 ng/kg/day
Procedure: as §1, §2
(§3) TWEAK administration: C57BL/6 female mice (9-12 weeks, weight 20 g, 7-8 animals per group), received a single intraperitoneal injection of 0.5 µg TWEAK dissolved in saline and were sacrificed 24 hours later, as previously described (Sanz et al. 2008). Controls were injected with the saline vehicle (n=8-10 mice per group). TWEAK endotoxin level were <0.1 ng/mg, confirmed by MALDI-TOF. […]
(§4) For western blot, cell (25 µg/lane) and kidney (100-150 µg/lane) protein extracts were separated on 6%-12% polyacrylamide-SDS gels under reducing conditions. […] Autoradiographs were scanned using the Gel Doc™ EZ imager and analyzed with the Image Lab 3.0 software (BioRad).

[4] = tested on: TRAF3; experiment: Renal TRAF3 (western blot), TWEAK-mediated renal inflammation in mice; format: in vivo; conditions: TWEAK 0.5 µg model; paricalcitol 750 ng/kg/day i.p.; sacrificed 24 hours after TWEAK
Procedure: as §1, §2, §3, §4

[5] = tested on: RelB or p52/NF-κB2; experiment: p52 and RelB DNA binding activity in PBMCs from ESRD patients on hemodialysis; format: in vivo, human; conditions: PBMCs from paricalcitol-treated ESRD patients; RelB or p52 DNA binding activities
Procedure: Intracellular protein and mRNA levels were measured in PBMCs from ESRD patients on hemodialysis. Inclusion criteria were as follows: age >45 years; male sex; informed consent; and absence of active inflammatory, infectious, or malignant diseases at the initiation or during the study. This study was approved by the IIS-Fundación Jiménez Diaz Ethics Committee. Patients were enrolled after providing written informed consent. PBMCs were separated from whole blood samples (30 ml into EDTA tubes) by a density gradient centrifugation method using Ficoll density gradient centrifugation. In total, 50x10^6 of PBMCs were obtained from 30 ml of whole blood and 6x10^6 PBMCs were used to isolate protein, RNA and nuclear/cytosolic protein levels using the NE-PER Reagent (Pierce) following the manufacturer's instructions.
Nuclear and cytoplasmic fractions were separated from renal tissues using the NE-PER Reagent (Pierce) following the manufacturer's instructions. In renal nuclear extracts, NF-κB2 and RelB DNA binding activity was measured by its binding to an oligonucleotide containing the NF-κB consensus site using a TransAM NF-κB Family kit (Active Motif) with an antibody that only recognizes active NF-κB2 p52 and RelB.

SMILES: C[C@H](/C=C/[C@H](C)C(C)(C)O)[C@H]1CC[C@H]2/C(=C/C=C3C[C@@H](O)C[C@H](O)C3)CCC[C@]12C [paricalcitol]
- renal CCL21A and CCL19 gene expression ([1]; paricalcitol 750 ng/kg/day or SN52 0.7 mg/mouse/day, real time PCR): reduced
- TWEAK-induced NF-κB2 activation in the kidney: nuclear p52 and RelB accumulation in tubular epithelial cells ([1]; paricalcitol 750 ng/kg/day, immunohistochemistry, western blot): reduced
- TWEAK-induced p52 and RelB DNA binding activities ([1]; renal nuclear protein extracts, paricalcitol 750 ng/kg/day, ELISA): inhibited
- CCL21 protein levels ([1]; total kidney proteins, paricalcitol 750 ng/kg/day, western blot): reduced
- TWEAK-induced NF-κB2 activation [2]: inhibited
- IκBα phosphorylation and nuclear p65 NF-κB levels [3]: not modulated; also recorded: not modified
- renal TRAF3 protein levels [4]: restored renal TRAF3 protein levels to values of control mice
- NF-κB2 pathway activation [5]: inhibited
